{"source": "patent US4795639A", "about": "“Potentiating formulations” (priority 1971, dated 1989)", "key": {"Proteus vulgaris CN 329": {"tested_on": "Proteus vulgaris CN 329", "assay": "testing discs on standard nutrient medium", "type": "cell-based", "conditions": "per 6 mm filterpaper disc: TMP 1.25 μg, SMX 23.75 μg, DMHP 100 μg, as in label"}, "Escherichia coli CN 314": {"tested_on": "Escherichia coli CN 314", "assay": "testing discs on standard nutrient medium", "type": "cell-based", "conditions": "per 6 mm filterpaper disc: TMP 1.25 μg, SMX 23.75 μg, DMHP 100 μg, as in label"}, "Staphylococcus aureus [1]": {"tested_on": "Staphylococcus aureus", "assay": "M.I.C. in Wellcome Nutrient Agar, 18 hours at 37° C.", "type": "cell-based", "conditions": "DMHP Nil"}, "[2]": {"tested_on": "Streptococcus faecalis CN 478", "assay": "testing discs on standard nutrient medium", "type": "cell-based", "conditions": "per 6 mm filterpaper disc: TMP 1.25 μg, SMX 23.75 μg, DMHP 100 μg, as in label"}, "[3]": {"tested_on": "Staphylococcus aureus N 491", "assay": "growth rate inhibition, turbidometric, Wellcome Nutrient Broth", "type": "cell-based"}, "[4]": {"tested_on": "Staphylococcus aureus CN 491", "assay": "testing discs on standard nutrient medium", "type": "cell-based", "conditions": "per 6 mm filterpaper disc: TMP 1.25 μg, SMX 23.75 μg, DMHP 100 μg, as in label"}, "[5]": {"tested_on": "Pseudomonas aeruginosa CN 200", "assay": "testing discs on standard nutrient medium", "type": "cell-based", "conditions": "per 6 mm filterpaper disc: TMP 1.25 μg, SMX 23.75 μg, DMHP 100 μg, as in label"}, "Staphylococcus aureus [6]": {"tested_on": "Staphylococcus aureus", "assay": "microbe, parasite or virus in culture", "conditions": "for Percentage of inoculum viable at 24 hrs.: DMHP Nil, Test 2", "procedure": "The results are shown in Table 9 in which the bactericidal activity is expressed as the percentage of the original inoculum, measured by viable counts, which was alive after 24-hours' incubation at 37° C. The inoculum used gave a final concentration of 10^6 organisms per ml."}, "Pasteurella multocida": {"tested_on": "Pasteurella multocida", "assay": "Pasteurella multocida infection in chicks", "type": "in vivo", "conditions": "Table 6"}, "Pseudomonas aeruginosa": {"tested_on": "Pseudomonas aeruginosa", "assay": "zone inhibition, pteridine in agar, drugs in well", "type": "cell-based", "conditions": "for complete zone inhibition, SMX (300) / zone including partial inhibition, SMX (300): SMX 300 μg/ml; for zone including partial inhibition, TMP (30): TMP 30 μg/ml; for complete zone inhibition, TMP + SMX (5) (100) / zone including partial inhibition, TMP + SMX (5) (100): TMP 5 + SMX 100 μg/ml", "procedure": "(§1) The pteridine was included in a soya peptone medium of low thymidine content (Wellcotest Sensitivity Test Agar) contained in a Petri-dish and the other component(s) added to the well resulting from the removal of a small plug from the medium. The surface of the medium was inoculated with the test organism and then incubated."}, "Staphylococcus aureus [7]": {"tested_on": "Staphylococcus aureus", "assay": "zone inhibition, pteridine in agar, drugs in well", "type": "cell-based", "conditions": "for complete zone inhibition, SMX (300) / zone including partial inhibition, SMX (300): SMX 300 μg/ml; for complete zone inhibition, TMP + SMX (5) (100) / zone including partial inhibition, TMP + SMX (5) (100): TMP 5 + SMX 100 μg/ml", "procedure": "as §1"}, "[8]": {"conditions": "Staphylococcus aureus, N491, 7 h, read-out: Percentage of inhibition at 7 hrs."}, "[9]": {"conditions": "Staphylococcus aureus, 24 h, read-out: Percentage of inoculum viable at 24 hrs."}, "[10]": {"conditions": "pteridine 3 μg/ml, TMP 30 μg/ml"}, "[11]": {"conditions": "pteridine 10 μg/ml, TMP 30 μg/ml"}}, "note": "“And” between values parts separate entries of the source, which are not always exact repeats. Equal entries are not always repeated.", "data": [{"smiles": "Cc1cc(NS(=O)(=O)c2ccc(N)cc2)no1", "note": "[Sulphamethoxazole, sulphamethoxazole]", "values": [{"measurement": "Size of zone in cm (×6 magnification)", "setting": "Proteus vulgaris CN 329", "value": 36, "unit": "cm"}, {"measurement": "Size of zone in cm (×6 magnification)", "setting": "Escherichia coli CN 314", "value": 28, "unit": "cm"}, {"measurement": "Sulphamethoxazole M.I.C.", "setting": "Staphylococcus aureus [1]", "value": 1.0, "unit": "µg/mL"}, {"measurement": "Size of zone in cm (×6 magnification)", "setting": "[2]", "value": 0, "unit": "cm"}, {"measurement": "inhibition at 0.1 µg/mL", "setting": "[3]; [8]", "value": 16, "unit": "%"}, {"measurement": "Size of zone in cm (×6 magnification)", "setting": "[4]", "value": 26, "unit": "cm"}, {"measurement": "Size of zone in cm (×6 magnification)", "setting": "[5]", "value": 32, "unit": "cm"}]}, {"smiles": "COc1cc(Cc2cnc(N)nc2N)cc(OC)c1OC", "note": "[Trimethoprim, 2,4-diamino-5-(3'4',5'-trimethoxybenzyl)pyrimidine]", "values": [{"measurement": "Size of zone in cm (×6 magnification)", "setting": "Proteus vulgaris CN 329", "value": 19, "unit": "cm"}, {"measurement": "Size of zone in cm (×6 magnification)", "setting": "Escherichia coli CN 314", "value": 34, "unit": "cm"}, {"measurement": "viability at 0.3 µg/mL", "setting": "Staphylococcus aureus [6]; [9]", "value": "> 100", "unit": "%"}, {"measurement": "viability at 1 µg/mL", "setting": "Staphylococcus aureus [6]; [9]", "value": "> 100", "unit": "%"}, {"measurement": "Percentage of inoculum viable at 24 hrs.", "setting": "Staphylococcus aureus [6]; Trimethoprim 0.3 μg./ml", "value": "> 100", "unit": "%"}, {"measurement": "Percentage of inoculum viable at 24 hrs.", "setting": "Staphylococcus aureus [6]; Trimethoprim 1.0 μg./ml", "value": "> 100", "unit": "%"}, {"measurement": "Cumulative Mortality on day 4", "setting": "Pasteurella multocida; doses as in E56", "value": 8}, {"measurement": "Cumulative Mortality on day 6", "setting": "Pasteurella multocida; doses as in E56", "value": 10}, {"measurement": "Cumulative Mortality on day 2", "setting": "Pasteurella multocida; doses as in E56, listed as TMP", "value": "4 and 2"}, {"measurement": "Cumulative Mortality on day 3", "setting": "Pasteurella multocida; doses as in E56, listed as TMP", "value": "4 and 5"}, {"measurement": "Cumulative Mortality on day 5", "setting": "Pasteurella multocida; doses as in E56, listed as TMP", "value": "10 and 8"}, {"measurement": "Cumulative Mortality on day 1", "setting": "Pasteurella multocida; groups of 10 chicks, 15:85 TMP SQX p.p.m / DMHP p.p.m: b654 25/20, b655 25/10, b656 25/5, b657 12.5/20, b658 12.5/10, b659 12.5/5, b660 50/-, b661 25/-, b662 12.5/-, b665 TMP 15, b666 TMP 30, b667 SQX 85, b669 SQX 42.5", "value": 0}, {"measurement": "Size of zone in cm (×6 magnification)", "setting": "[2]", "value": 28, "unit": "cm"}, {"measurement": "Percentage of inhibition at 7 hrs.", "setting": "[3]", "value": "6 and 12"}, {"measurement": "inhibition at 0.002 µg/mL", "setting": "[3]; [8]", "value": 10, "unit": "%"}, {"measurement": "inhibition at 0.004 µg/mL", "setting": "[3]; [8]", "value": 8, "unit": "%"}, {"measurement": "Size of zone in cm (×6 magnification)", "setting": "[4]", "value": 21, "unit": "cm"}, {"measurement": "Size of zone in cm (×6 magnification)", "setting": "[5]", "value": 0, "unit": "cm"}]}, {"smiles": "CCC1(CC)Nc2nc(N)nc(O)c2N=C1CO", "note": "[R = CH2 OH R = R^2 = Et, 2-amino-4-hydroxy-6-hydroxymethyl-7,7-diethyl-7,8-dihydropteridine]", "values": [{"measurement": "complete zone inhibition, SMX (300)", "setting": "Pseudomonas aeruginosa; pteridine 3 μg/ml", "value": 9.0, "unit": "centimeters"}, {"measurement": "zone including partial inhibition, SMX (300)", "setting": "Pseudomonas aeruginosa; pteridine 3 μg/ml", "value": 13.0, "unit": "centimeters"}, {"measurement": "zone including partial inhibition, TMP (30)", "setting": "Pseudomonas aeruginosa; pteridine 3 μg/ml", "value": 3.0, "unit": "centimeters"}, {"measurement": "complete zone inhibition, TMP + SMX (5) (100)", "setting": "Pseudomonas aeruginosa; pteridine 3 μg/ml", "value": 7.0, "unit": "centimeters"}, {"measurement": "zone including partial inhibition, TMP + SMX (5) (100)", "setting": "Pseudomonas aeruginosa; pteridine 3 μg/ml", "value": 10.0, "unit": "centimeters"}, {"measurement": "complete zone inhibition, SMX (300)", "setting": "Pseudomonas aeruginosa; pteridine 10 μg/ml", "value": 13, "unit": "centimeters"}, {"measurement": "zone including partial inhibition, SMX (300)", "setting": "Pseudomonas aeruginosa; pteridine 10 μg/ml", "value": 16.0, "unit": "centimeters"}, {"measurement": "zone including partial inhibition, TMP (30)", "setting": "Pseudomonas aeruginosa; pteridine 10 μg/ml", "value": 5.0, "unit": "centimeters"}, {"measurement": "complete zone inhibition, TMP + SMX (5) (100)", "setting": "Pseudomonas aeruginosa; pteridine 10 μg/ml", "value": 8.0, "unit": "centimeters"}, {"measurement": "zone including partial inhibition, TMP + SMX (5) (100)", "setting": "Pseudomonas aeruginosa; pteridine 10 μg/ml", "value": 12.0, "unit": "centimeters"}, {"measurement": "synergism with TMP and SMX against Staphylococcus aureus", "setting": "Staphylococcus aureus [7]; compared with DMHP", "value": "slightly more active than DMHP"}, {"measurement": "complete zone inhibition, SMX (300)", "setting": "Staphylococcus aureus [7]; pteridine 3 μg/ml", "value": 6.5, "unit": "centimeters"}, {"measurement": "zone including partial inhibition, SMX (300)", "setting": "Staphylococcus aureus [7]; pteridine 3 μg/ml", "value": 12.5, "unit": "centimeters"}, {"measurement": "complete zone inhibition, TMP (30)", "setting": "Staphylococcus aureus [7]; [10]", "value": 8.5, "unit": "centimeters"}, {"measurement": "zone including partial inhibition, TMP (30)", "setting": "Staphylococcus aureus [7]; [10]", "value": 10.5, "unit": "centimeters"}, {"measurement": "complete zone inhibition, TMP + SMX (5) (100)", "setting": "Staphylococcus aureus [7]; pteridine 3 μg/ml", "value": 10.5, "unit": "centimeters"}, {"measurement": "zone including partial inhibition, TMP + SMX (5) (100)", "setting": "Staphylococcus aureus [7]; pteridine 3 μg/ml", "value": 12.5, "unit": "centimeters"}, {"measurement": "complete zone inhibition, SMX (300)", "setting": "Staphylococcus aureus [7]; pteridine 10 μg/ml", "value": 10.5, "unit": "centimeters"}, {"measurement": "zone including partial inhibition, SMX (300)", "setting": "Staphylococcus aureus [7]; pteridine 10 μg/ml", "value": 14.0, "unit": "centimeters"}, {"measurement": "complete zone inhibition, TMP (30)", "setting": "Staphylococcus aureus [7]; [11]", "value": 10.5, "unit": "centimeters"}, {"measurement": "zone including partial inhibition, TMP (30)", "setting": "Staphylococcus aureus [7]; [11]", "value": 13.0, "unit": "centimeters"}, {"measurement": "complete zone inhibition, TMP + SMX (5) (100)", "setting": "Staphylococcus aureus [7]; pteridine 10 μg/ml", "value": 11.0, "unit": "centimeters"}, {"measurement": "zone including partial inhibition, TMP + SMX (5) (100)", "setting": "Staphylococcus aureus [7]; pteridine 10 μg/ml", "value": 14.5, "unit": "centimeters"}, {"measurement": "complete zone inhibition, TMP (30)", "setting": "Staphylococcus aureus [7]; pteridine 30 μg/ml in medium, TMP 30 μg/ml in well, about 6× magnification", "value": 12.5, "unit": "centimeters"}, {"measurement": "complete zone inhibition, SMX (300)", "setting": "Staphylococcus aureus [7]; pteridine 30 μg/ml", "value": 12.5, "unit": "centimeters"}, {"measurement": "zone including partial inhibition, SMX (300)", "setting": "Staphylococcus aureus [7]; pteridine 30 μg/ml", "value": 17.0, "unit": "centimeters"}, {"measurement": "zone including partial inhibition, TMP (30)", "setting": "Staphylococcus aureus [7]; pteridine 30 μg/ml, TMP 30 μg/ml", "value": 17.0, "unit": "centimeters"}, {"measurement": "complete zone inhibition, TMP + SMX (5) (100)", "setting": "Staphylococcus aureus [7]; pteridine 30 μg/ml", "value": 12.5, "unit": "centimeters"}, {"measurement": "zone including partial inhibition, TMP + SMX (5) (100)", "setting": "Staphylococcus aureus [7]; pteridine 30 μg/ml", "value": 17.0, "unit": "centimeters"}]}]}
